From the supplement of paper PMC10307832

How the values were obtained:
Test in all cases: relative viability (nuclei count vs DMSO), 5 days (fraction); higher = more cells survive
XMD14-99 + Lapatinib = compound: CN1CCN(CC1)C2=CC(=C(C=C2)NC3=NC(=C(S3)C(=O)C4=C(C=CC=C4Cl)Cl)N)OC [XMD14-99] + CS(=O)(=O)CCNCc1ccc(-c2ccc3ncnc(Nc4ccc(OCc5cccc(F)c5)c(Cl)c4)c3c2)o1 [Lapatinib] (partner 2 µM)
Outline: (§1)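 Lung cancer cell lines, seeded in 1536-well plates, were treated the following day by pin tool with a single drug or with five library-drug doses (not always all listed) in √10 steps on top of a fixed anchor-drug dose. Cells were fixed and nuclei stained in one step after 5 days, and nuclei were counted. Relative viability is the nuclei count for treated wells divided by that for vehicle wells, reported as medians of duplicate plates.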

AZD1208 + Luminespib = compound: N[C@@H]1CCCN(c2c(/C=C3\SC(=O)NC3=O)cccc2-c2ccccc2)C1 [AZD1208] + CCNC(=O)c1noc(-c2cc(C(C)C)c(O)cc2O)c1-c1ccc(CN2CCOCC2)cc1 [Luminespib] (partner 0.01 µM)
Outline: as §1

XMD14-99 + Palbociclib = compound: CN1CCN(CC1)C2=CC(=C(C=C2)NC3=NC(=C(S3)C(=O)C4=C(C=CC=C4Cl)Cl)N)OC [XMD14-99] + CC(=O)c1c(C)c2cnc(Nc3ccc(N4CCNCC4)cn3)nc2n(C2CCCC2)c1=O [Palbociclib] (partner 0.5 µM)
Outline: as §1

AZD1208 + Tozasertib = compound: N[C@@H]1CCCN(c2c(/C=C3\SC(=O)NC3=O)cccc2-c2ccccc2)C1 [AZD1208] + Cc1cc(Nc2cc(N3CCN(C)CC3)nc(Sc3ccc(NC(=O)C4CC4)cc3)n2)n[nH]1 [Tozasertib] (partner 0.1 µM)
Outline: as §1

UMC-11
relative viability (XMD14-99 + Lapatinib; first compound 0.08 µM): 1.13
relative viability (XMD14-99 + Lapatinib; first compound 0.8 µM): 0.969
relative viability (XMD14-99 + Lapatinib; first compound 2.53 µM): 0.974
relative viability (XMD14-99 + Lapatinib; first compound 8 µM): 0.744
relative viability (AZD1208 + Luminespib; first compound 0.08 µM): 0.816
relative viability (AZD1208 + Luminespib; first compound 0.253 µM): 0.894
relative viability (AZD1208 + Luminespib; first compound 0.8 µM): 0.62
relative viability (AZD1208 + Luminespib; first compound 2.53 µM): 0.664
relative viability (AZD1208 + Luminespib; first compound 8 µM): 0.406
relative viability (XMD14-99 + Palbociclib; first compound 0.08 µM): 0.34
relative viability (XMD14-99 + Palbociclib; first compound 0.8 µM): 0.383
relative viability (XMD14-99 + Palbociclib; first compound 2.53 µM): 0.346
relative viability (XMD14-99 + Palbociclib; first compound 8 µM): 0.292
relative viability (AZD1208 + Tozasertib; first compound 0.08 µM): 0.204
relative viability (AZD1208 + Tozasertib; first compound 0.253 µM): 0.205
relative viability (AZD1208 + Tozasertib; first compound 0.8 µM): 0.211
relative viability (AZD1208 + Tozasertib; first compound 2.53 µM): 0.207
relative viability (AZD1208 + Tozasertib; first compound 8 µM): 0.21
